Results reported in patent US20240067693A1, “POLYPEPTIDES AND USES THEREOF” (MEDIMMUNE LIMITED, priority 2020, published 2024).
Numbered stars: 1 amine (or outer) side, 2 acyl side, 3 side chain; on linkers, the order of the positions; unused ones are H or OH. Bridge positions count the residues as written; N and C are the ends. Square brackets hold non-standard residues; d marks the D form. Side chains are listed from the residue outwards. Peptide text beside a SMILES is read from it. * marks the point of attachment. C20 diacid = O=C(O)CCCCCCCCCCCCCCCCCCC(=O)*; C18 diacid = O=C(O)CCCCCCCCCCCCCCCCC(=O)*; γGlu = O=C(O)[C@H](CCC(=O)[*:2])N[*:1]; αMeF = C[C@](N)(Cc1ccccc1)C(=O)O; Dab = NCC[C@H](N)C(=O)O; AEEA = NCCOCCOCC(=O)O; Aib = CC(C)(N)C(=O)O

Tests used:
[1] = target: T1, rat amylin receptor (calcitonin receptor co-expressed with receptor activity modifying protein, RAMP3) (Rat AMYR3) (Rattus norvegicus, UniProt P32214+Q9JJ73); assay: cAMP production in HEK cells with stable recombinant expression of rat amylin receptor (Rat AMYR3); assay type: cell-based; details: assay buffer with 0.1% BSA
T1 construct: expressed in transfected cells
T1 sequence (P32214 25-516): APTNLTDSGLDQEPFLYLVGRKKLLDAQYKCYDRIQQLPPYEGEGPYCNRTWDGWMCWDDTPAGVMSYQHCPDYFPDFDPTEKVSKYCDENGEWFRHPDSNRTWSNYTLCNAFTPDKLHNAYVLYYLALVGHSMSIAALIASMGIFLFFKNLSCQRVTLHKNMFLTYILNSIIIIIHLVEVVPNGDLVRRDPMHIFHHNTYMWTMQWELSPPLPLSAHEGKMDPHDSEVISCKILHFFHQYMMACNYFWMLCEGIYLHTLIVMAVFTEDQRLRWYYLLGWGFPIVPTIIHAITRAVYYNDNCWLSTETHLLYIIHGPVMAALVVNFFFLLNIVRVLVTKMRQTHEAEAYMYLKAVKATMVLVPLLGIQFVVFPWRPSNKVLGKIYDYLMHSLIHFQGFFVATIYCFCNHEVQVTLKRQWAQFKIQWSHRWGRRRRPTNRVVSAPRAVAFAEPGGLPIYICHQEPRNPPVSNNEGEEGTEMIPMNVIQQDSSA
T1 sequence (Q9JJ73 23-147 partner): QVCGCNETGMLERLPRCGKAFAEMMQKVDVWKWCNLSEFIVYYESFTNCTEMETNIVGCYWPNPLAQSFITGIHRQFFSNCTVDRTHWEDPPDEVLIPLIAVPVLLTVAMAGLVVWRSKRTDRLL
Method in brief: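 EC50 values come from 4-parameter logistic fits of HTRF cAMP signal, normalised to maximal calcitonin or amylin effect. Peptides were tested in duplicate for 30 min at RT in IBMX-containing (0.5 mM) BSA/HEPES buffer pH 7.4 on stable 1321N1 (human CTR, AMYR3) or HEK (rat CTR, AMYR3) lines.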

lean rats = assay: Rat acute food intake study; assay type: in vivo; details: lean male Sprague Dawley rats, 20 nmol/kg subcutaneously
Method in brief: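 Male Sprague Dawley rats (n=7/group), fasted 6 h, received 20 nmol/kg test compound or 60 nmol/kg pramlintide subcutaneously 30 min before food return at dark onset. Food intake recorded automatically in home cages over 3 days, binned hourly and analysed as cumulative dark-period intake; body weight taken daily.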

in vivo = details: male, Sprague-Dawley, rat, 20 nmol/kg

SMILES	EC50 [1] [pM]	Cummulative food intake (% vehicle treated intake) At 12 h (lean rats) [% vehicle treated intake]	Cummulative food intake (% vehicle treated intake) At 24 h (lean rats) [% vehicle treated intake]	Cummulative food intake (% vehicle treated intake) At 48 h (lean rats) [% vehicle treated intake]	half-life (in vivo; iv) [h]	half-life (in vivo; sc) [h]
CC[C@H](C)[C@H](NC(=O)[C@@H]1CCCN1C(=O)CNC(=O)[C@H](Cc1ccccc1)NC(=O)[C@H](CC(N)=O)NC(=O)[C@H](CC(N)=O)NC(=O)[C@H](CO)NC(=O)[C@H](CO)NC(=O)[C@H](Cc1c[nH]cn1)NC(=O)[C@@H](NC(=O)[C@H](CC(C)C)NC(=O)[C@H](Cc1ccccc1)NC(=O)[C@H](CC(N)=O)NC(=O)[C@H](C)NC(=O)[C@H](CC(C)C)NC(=O)[C@H](CCCNC(=N)N)NC(=O)[C@H](CCC(N)=O)NC(=O)[C@@H](NC(=O)[C@H](C)NC(=O)[C@@H]1CSSC[C@H](NC(=O)[C@H](CCCCN)NC(=O)COCCOCCNC(=O)COCCOCCNC(=O)CC[C@H](NC(=O)CCCCCCCCCCCCCCCCCCC(=O)O)C(=O)O)C(=O)N[C@@H](CC(N)=O)C(=O)N[C@@H]([C@@H](C)O)C(=O)N[C@@H](C)C(=O)N[C@@H]([C@@H](C)O)C(=O)N1)[C@@H](C)O)C(C)C)C(=O)N[C@@H](CC(C)C)C(=O)N1CCC[C@H]1C(=O)N1CCC[C@H]1C(=O)N[C@H](C(=O)N[C@@H](CC(N)=O)C(=O)N[C@H](C(=O)NCC(=O)N[C@@H](CO)C(=O)N[C@@H](CC(N)=O)C(=O)N[C@H](C(=O)N[C@@H](Cc1ccc(O)cc1)C(N)=O)[C@@H](C)O)C(C)C)[C@@H](C)O [Peptide 113] ({C20 diacid-γGlu-AEEA-AEEA}-KCNTATCATQRLANFLVHSSNNFGPILPPTNVGSNTY-NH2; disulfide 2-7)	32.6	69.5	65.8	77.9	11.2	18.2
CC[C@H](C)[C@H](NC(=O)[C@@H]1CCCN1C(=O)CNC(=O)[C@H](Cc1ccccc1)NC(=O)[C@H](CC(N)=O)NC(=O)[C@H](CC(N)=O)NC(=O)[C@H](CO)NC(=O)[C@H](CO)NC(=O)[C@H](Cc1c[nH]cn1)NC(=O)[C@@H](NC(=O)[C@H](CC(C)C)NC(=O)[C@H](Cc1ccccc1)NC(=O)[C@H](CC(N)=O)NC(=O)[C@H](C)NC(=O)[C@H](CC(C)C)NC(=O)[C@H](CCCNC(=N)N)NC(=O)[C@H](CCC(N)=O)NC(=O)[C@@H](NC(=O)[C@H](C)NC(=O)[C@@H]1CSSC[C@H](NC(=O)[C@H](CCCCN)NC(=O)CC[C@H](NC(=O)CCCCCCCCCCCCCCCCC(=O)O)C(=O)O)C(=O)N[C@@H](CC(N)=O)C(=O)N[C@@H]([C@@H](C)O)C(=O)N[C@@H](C)C(=O)N[C@@H]([C@@H](C)O)C(=O)N1)[C@@H](C)O)C(C)C)C(=O)N[C@@H](CC(C)C)C(=O)N1CCC[C@H]1C(=O)N1CCC[C@H]1C(=O)N[C@H](C(=O)N[C@@H](CC(N)=O)C(=O)N[C@H](C(=O)NCC(=O)N[C@@H](CO)C(=O)N[C@@H](CC(N)=O)C(=O)N[C@H](C(=O)N[C@@H](Cc1ccc(O)cc1)C(N)=O)[C@@H](C)O)C(C)C)[C@@H](C)O [Peptide 3] ({C18 diacid-γGlu}-KCNTATCATQRLANFLVHSSNNFGPILPPTNVGSNTY-NH2; disulfide 2-7)	2.9	13.4	14.4	30.3	14	–
CC[C@H](C)[C@H](NC(=O)[C@H](C)NC(=O)[C@@H]1CCCN1C(=O)[C@H](Cc1ccccc1)NC(=O)[C@H](CC(N)=O)NC(=O)[C@H](CCN)NC(=O)[C@H](CO)NC(=O)[C@H](CO)NC(=O)[C@H](Cc1c[nH]cn1)NC(=O)[C@@H](NC(=O)[C@H](CC(C)C)NC(=O)[C@H](Cc1ccccc1)NC(=O)[C@H](CC(N)=O)NC(=O)[C@H](C)NC(=O)[C@H](CC(C)C)NC(=O)[C@H](CCCNC(=N)N)NC(=O)[C@H](CCC(N)=O)NC(=O)[C@@H](NC(=O)[C@H](C)NC(=O)[C@@H]1CSSC[C@H](NC(=O)[C@@H](N)CCCCNC(=O)CC[C@H](NC(=O)CC[C@H](NC(=O)CCCCCCCCCCCCCCCCC(=O)O)C(=O)O)C(=O)O)C(=O)N[C@@H](CC(N)=O)C(=O)N[C@@H]([C@@H](C)O)C(=O)N[C@@H](C)C(=O)N[C@@H]([C@@H](C)O)C(=O)N1)[C@@H](C)O)C(C)C)C(=O)N[C@@H](CC(C)C)C(=O)N[C@@H](CO)C(=O)N1CCC[C@H]1C(=O)N[C@H](C(=O)N[C@@H](CC(N)=O)C(=O)N[C@H](C(=O)NCC(=O)N[C@@H](CO)C(=O)N[C@@H](CC(N)=O)C(=O)N[C@H](C(=O)N[C@@H](Cc1ccc(O)cc1)C(N)=O)[C@@H](C)O)C(C)C)[C@@H](C)O [Peptide 8, K(γE-γE-C18diacid)[CNTATC]ATQRLANFLVHSS(Dab)NFPAILSPTNVGSNTY-amide] (H-K([γGlu-γGlu-C18 diacid])CNTATCATQRLANFLVHSS[Dab]NFPAILSPTNVGSNTY-NH2; disulfide 2-7)	25.6	28.1	42.7	68.8	4.2	6.2
CC[C@H](C)[C@H](NC(=O)[C@@H]1CCCN1C(=O)CNC(=O)[C@](C)(Cc1ccccc1)NC(=O)[C@H](CC(N)=O)NC(=O)[C@H](CC(N)=O)NC(=O)[C@H](CO)NC(=O)[C@H](CO)NC(=O)[C@H](Cc1c[nH]cn1)NC(=O)[C@@H](NC(=O)[C@H](CC(C)C)NC(=O)[C@H](Cc1ccccc1)NC(=O)[C@H](CC(N)=O)NC(=O)[C@H](C)NC(=O)[C@H](CC(C)C)NC(=O)[C@H](CCCNC(=N)N)NC(=O)[C@H](CCC(N)=O)NC(=O)[C@@H](NC(=O)[C@H](C)NC(=O)[C@@H]1CSSC[C@H](NC(=O)[C@@H](N)CCCCNC(=O)CC[C@H](NC(=O)CC[C@H](NC(=O)CCCCCCCCCCCCCCCCC(=O)O)C(=O)O)C(=O)O)C(=O)N[C@@H](CC(N)=O)C(=O)N[C@@H]([C@@H](C)O)C(=O)N[C@@H](C)C(=O)N[C@@H]([C@@H](C)O)C(=O)N1)[C@@H](C)O)C(C)C)C(=O)N[C@@H](CC(C)C)C(=O)N1CCC[C@H]1C(=O)N1CCC[C@H]1C(=O)N[C@H](C(=O)N[C@@H](CCCNC(=N)N)C(=O)N[C@H](C(=O)NCC(=O)N[C@@H](CO)C(=O)N[C@@H](CC(N)=O)C(=O)N[C@H](C(=O)N[C@@H](Cc1ccc(O)cc1)C(N)=O)[C@@H](C)O)C(C)C)[C@@H](C)O [Peptide 24, K(γE-γE-C18diacid)[CNTATC]ATQRLANFLVHSSNN(αMePhe)GPILPPTRVGSNTY-amide] (H-K([γGlu-γGlu-C18 diacid])CNTATCATQRLANFLVHSSNN[αMeF]GPILPPTRVGSNTY-NH2; disulfide 2-7; N-terminus assumed)	17.7	18.7	19.4	40.6	9.4	10.5
CC[C@H](C)[C@H](NC(=O)[C@@H]1CCCN1C(=O)CNC(=O)[C@H](Cc1ccccc1)NC(=O)[C@H](CC(N)=O)NC(=O)C(C)(C)NC(=O)[C@H](CO)NC(=O)[C@H](CO)NC(=O)[C@H](Cc1c[nH]cn1)NC(=O)[C@@H](NC(=O)[C@H](CC(C)C)NC(=O)[C@H](Cc1ccccc1)NC(=O)[C@H](CC(N)=O)NC(=O)[C@H](C)NC(=O)[C@H](CC(C)C)NC(=O)[C@H](CCCNC(=N)N)NC(=O)[C@H](CCC(N)=O)NC(=O)[C@@H](NC(=O)[C@H](C)NC(=O)[C@@H]1CSSC[C@H](NC(=O)[C@H](CCCCN)NC(=O)[C@@H](N)CCCCNC(=O)CC[C@H](NC(=O)CCCCCCCCCCCCCCCCC(=O)O)C(=O)O)C(=O)N[C@@H](CC(N)=O)C(=O)N[C@@H]([C@@H](C)O)C(=O)N[C@@H](C)C(=O)N[C@@H]([C@@H](C)O)C(=O)N1)[C@@H](C)O)C(C)C)C(=O)N[C@@H](CC(C)C)C(=O)N1CCC[C@H]1C(=O)N1CCC[C@H]1C(=O)N[C@H](C(=O)N[C@@H](Cc1c[nH]cn1)C(=O)N[C@H](C(=O)NCC(=O)N[C@@H](CO)C(=O)N[C@@H](CC(N)=O)C(=O)N[C@H](C(=O)N[C@@H](Cc1ccc(O)cc1)C(N)=O)[C@@H](C)O)C(C)C)[C@@H](C)O [Peptide 40, K(γE-C18diacid)K[CNTATC]ATQRLANFLVHSS(Aib)NFGPILPPTHVGSNTY-amide] (H-K([γGlu-C18 diacid])KCNTATCATQRLANFLVHSS[Aib]NFGPILPPTHVGSNTY-NH2; disulfide 3-8)	12	60.7	51.8	72.4	7.4	8.1
